# Data from article PMC5267425, “Identification of small molecule modulators of HIV-1 Tat and Rev protein accumulation” (Retrovirology, 2017).
# Values joined by “and” are separate entries in the source; they are usually repeats but may differ in a detail not shown here. Identical values can stand only once.
# System: cellular gene expression in HeLa rtTA HIV∆Mls cells
# Settings: 9147791-treated cells, replicates
smiles,measurement,value
"Cc1cc(NCc2cccnc2)n2ncc(-c3ccc(Cl)cc3)c2n1 [Compound 791, 3-(4-chlorophenyl)-5-methyl-N-(3-pyridinylmethyl)pyrazolo[1,5-a]pyrimidin-7-amine]",ACTN1 expression level,70.54 and 65.87
same,ADI1 expression level,21.28 and 20.50
same,AGPAT2 expression level,26.74 and 28.83
same,ALDOC expression level,1.08 and 1.02
same,ANXA5 expression level,191.66 and 185.16
same,ANXA6 expression level,69.55 and 59.50
same,AP2M1 expression level,238.02 and 237.30
same,APOBEC3B expression level,8.21 and 6.81
same,ARF1 expression level,151.10 and 145.27
same,ARHGAP11A expression level,26.24 and 25.64
same,ARPC5 expression level,71.19 and 65.59
same,ATP6V0A1 expression level,15.83 and 16.80
same,ATP8B1 expression level,0.78 and 0.65
same,B3GNT1 expression level,9.03 and 9.24
same,BAT3 expression level,82.22 and 79.10
same,BCOR expression level,21.09 and 21.93
same,BCORL1 expression level,5.39 and 5.54
same,BHLHB9 expression level,1.05 and 1.03
same,BMPR1B expression level,0.73 and 0.81
same,BST2 expression level,245.44 and 203.71
same,C1orf115 expression level,6.22 and 6.65
same,C3orf59 expression level,1.02 and 1.00
same,C5orf13 expression level,10.12 and 9.25
same,C5orf15 expression level,25.66 and 24.81
same,C6orf145 expression level,25.69 and 26.94
same,C9orf3 expression level,5.07 and 4.02
same,C9orf163 expression level,0.72 and 0.74
same,C10orf76 expression level,6.17 and 6.53
same,C10orf114 expression level,6.12 and 7.21
same,C14orf147 expression level,24.04 and 21.03
same,C19orf28 expression level,20.85 and 20.05
same,C20orf29 expression level,8.83 and 7.98
same,CALD1 expression level,28.16 and 24.92
same,CAP2 expression level,6.21 and 6.88
same,CAPN1 expression level,47.66 and 45.36
same,CASC5 expression level,8.52 and 8.14
same,CAV2 expression level,13.23 and 12.84
same,CCDC85C expression level,13.99 and 13.05
same,CCDC99 expression level,61.28 and 55.39
same,CCDC102A expression level,2.18 and 1.83
same,CCDC150 expression level,3.18 and 3.23
same,CD276 expression level,44.64 and 46.66
same,CDC42EP3 expression level,3.11 and 2.92
same,CDK1 expression level,61.18 and 65.43
same,CDKL1 expression level,6.48 and 6.73
same,CDKN2C expression level,30.46 and 26.27
same,CGN expression level,1.21 and 1.38
same,CHN1 expression level,6.56 and 6.26
same,CLPTM1L expression level,137.08 and 134.64
same,CNN2 expression level,47.78 and 46.33
same,CNNM3 expression level,10.75 and 11.30
same,COMMD1 expression level,12.70 and 12.99
same,CRTC3 expression level,31.32 and 28.75
same,CSRP2 expression level,30.49 and 33.02
same,CTNND1 expression level,21.98 and 23.56
same,CTTNBP2 expression level,2.16 and 2.53
same,CYTH3 expression level,13.78 and 13.70
same,DAB2 expression level,15.91 and 16.84
same,DAG1 expression level,27.42 and 30.65
same,DBF4B expression level,6.80 and 6.36
same,DCAF6 expression level,12.78 and 12.38
same,DDR1 expression level,23.20 and 20.76
same,DNMT3L expression level,1.04 and 0.90
same,DOCK1 expression level,11.83 and 12.65
same,DOCK8 expression level,1.41 and 1.38
same,DUSP1 expression level,278.63 and 269.45
same,DUSP8 expression level,0.79 and 0.93
same,ECT2 expression level,33.55 and 30.42
same,EMP2 expression level,8.82 and 9.39
same,EPB41L4A expression level,4.70 and 5.12
same,ERCC2 expression level,21.00 and 19.80
same,ESAM expression level,3.07 and 3.33
same,ESYT2 expression level,32.11 and 32.37
same,F2R expression level,28.45 and 29.47
same,FAM13B expression level,9.53 and 8.84
same,FAM83D expression level,34.40 and 31.73
same,FAM127A expression level,137.05 and 133.03
same,FARP1 expression level,32.38 and 34.32
same,FBXL2 expression level,3.80 and 3.59
same,FDFT1 expression level,43.70 and 46.85
same,FGFR3 expression level,5.45 and 6.20
same,FSTL1 expression level,31.24 and 29.61
same,FUBP1 expression level,41.68 and 44.21
same,FZR1 expression level,11.76 and 10.90
same,GALNT2 expression level,52.29 and 59.07
same,GATSL1 expression level,3.56 and 3.66
same,GLCCI1 expression level,5.50 and 5.98
same,GLI2 expression level,1.61 and 1.91
same,GNG10 expression level,35.68 and 34.10
same,GPR176 expression level,6.89 and 6.58
same,GTF3C1 expression level,29.06 and 29.38
same,H3F3A expression level,242.14 and 260.31
same,HACL1 expression level,8.70 and 8.40
same,HDAC1 expression level,74.08 and 73.05
same,HEG1 expression level,6.29 and 6.77
same,HIST1H3B expression level,1.94 and 1.96
same,HMGB3 expression level,28.50 and 26.71
same,HMGN3 expression level,74.54 and 69.90
same,HNRNPH2 expression level,55.22 and 51.55
same,HSPB8 expression level,24.33 and 26.14
same,ICK expression level,4.87 and 5.19
same,ID3 expression level,119.77 and 102.82
same,IDH2 expression level,17.89 and 18.64
same,IDI1 expression level,13.51 and 16.55
same,IKBIP expression level,8.02 and 8.05
same,INCENP expression level,24.44 and 25.00
same,INO80C expression level,1.90 and 1.87
same,JUB expression level,13.13 and 12.45
same,KANK2 expression level,20.68 and 20.72
same,KHDRBS1 expression level,80.26 and 74.92
same,KIF3B expression level,14.85 and 14.03
same,KIF5C expression level,0.60 and 0.55
same,KIF11 expression level,24.10 and 21.47
same,KIF18B expression level,12.16 and 12.54
same,KIF20B expression level,12.24 and 11.00
same,KIFC1 expression level,47.71 and 45.30
same,KITLG expression level,11.50 and 12.57
same,KLF9 expression level,12.26 and 10.78
same,KLHDC3 expression level,56.38 and 53.87
same,KPNA2 expression level,179.32 and 162.46
same,LAPTM4B expression level,71.83 and 68.84
same,LMO7 expression level,19.87 and 20.69
same,LRRC16A expression level,6.80 and 7.88
same,MAML2 expression level,2.44 and 2.29
same,MANF expression level,42.22 and 45.27
same,MAP3K14 expression level,8.59 and 8.30
